Consider three compounds from patent US20020137054A1, “AXOR35, a G-protein coupled receptor” (SmithKline Beecham Corporation & SmithKline Beecham plc, priority 1999, published 2002).

In series [1] the target is T1, AXOR35 (Homo sapiens, UniProt Q9H3N8). The settings on record: calcium mobilization response, method analogous to Example 8.
The target of series [2] is T1, AXOR35. The settings on record: histamine challenge of control cells transiently expressing AXOR35. The procedure:
Prior to challenge with histamine, cells transiently expressing AXOR35 are treated with increasing concentrations of test compound. […] Antagonist activity is calculated as the concentration of test compound required to inhibit 50% of a maximum histamine response (IC50).

Each structure is given as a SMILES string. Structures can show the parent of a compound that is named as a salt.

T1 sequence (Q9H3N8 whole entry): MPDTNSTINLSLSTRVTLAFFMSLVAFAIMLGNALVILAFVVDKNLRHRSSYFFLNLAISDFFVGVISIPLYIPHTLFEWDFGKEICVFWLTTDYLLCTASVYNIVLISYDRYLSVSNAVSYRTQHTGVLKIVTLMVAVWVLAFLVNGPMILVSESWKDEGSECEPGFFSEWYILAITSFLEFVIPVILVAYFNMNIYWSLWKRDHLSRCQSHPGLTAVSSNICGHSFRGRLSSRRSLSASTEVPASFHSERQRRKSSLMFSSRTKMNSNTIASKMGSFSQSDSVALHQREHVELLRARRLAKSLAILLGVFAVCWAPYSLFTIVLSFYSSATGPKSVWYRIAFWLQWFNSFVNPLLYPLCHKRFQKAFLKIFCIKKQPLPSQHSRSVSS

For the compound `NCCc1c[nH]cn1` [histamine, 1H-imidazole-4-ethanamine], the “ligand for AXOR35” value on AXOR35 [1] is listed as “ligands for AXOR35”. The concentration for an effect of 80% (EC80) on AXOR35 [2] stood at 100 nM.

On to `NCC(Cc1ccc(Cl)cc1)c1c[nH]cn1` (stereo not shown) (as salt: hydrochloride), for which the melting point was in the range of 254 to 256 °C.

As for `NCC(c1ccccc1)c1cnc[nH]1` (stereo not shown) (as salt: hydrochloride), the melting point is 264 to 266 °C.
